For one assay, the system named is rabbit aortal strip. The experiment in a line: Test (a): rabbit aortal strip model (Piper and Vane). Format: cell-based. Conditions: agonist TXA2 or U46619. On the procedure: (§1) As stated earlier, the compound of formula I is an antagonist of one or more of the actions of TXA2, for example certain of its actions on blood platelets, the vasculature and/or the lung.
(a) The rabbit aortal strip model devised by Piper and Vane (Nature, 1969, 223, 29-35) using as agonist a freshly prepared sample of TXA2, generated by addition of arachidonic acid (25 μg) to citrated, platelet rich rabbit plasma (250 μl) and allowing the mixture to aggregate fully over 90 seconds before use; alternatively the TXA2 mimetic agent known as U46619 (described by R.L. Jones et alia in "Chemistry, Biochemistry and Pharmacological Activity of Prostanoids" edited by S.M. Roberts and F. Scheinmann, at page 211; Pergamon Press, 1979) may be used as the agonist;

For assay [1], the system named is U46619 induced bronchoconstriction. The experiment in a line: Test (c): U46619-induced bronchoconstriction, Konzett-Rossler anaesthetised guinea-pig model. Format: in vivo. Conditions: 2 hours after oral dosing at 0.05 mg/kg, U46619 i.v. From the text:
(c) a bronchoconstriction test involving measuring the inhibition by a test compound of the bronchoconstriction induced in the Konzett-Rossler, anaesthetised guinea-pig model (as modified by Collier and James, Brit. J. Pharmacol., 1967, 30, 283-307) by intravenous administration of the TXA2 mimetic agent, U46619 and involving:
(i) obtaining a cumulative dose-response curve to U46619 induced bronchoconstriction by intravenous administration of constant volumes of increasing concentrations of U46619 (0.2-4 μg/kg) in physiological saline solution and expressing bronchoconstriction as the maximum of that theoretically obtainable with no air flow to the test animal;
(ii) generating a cumulative dose-response curve to U46619 induced bronchoconstriction at 30 minute intervals for 3 hours after oral dosing of test compound; and
(iii) calculating a dose-ratio for the test compound (that is the ratio of concentration of U46619 required to cause 50% bronchoconstriction in the presence and absence of test compound) indicating the potency of TXA2 antagonism.

Assay [2] deals with T1, human, citrated, platelet-rich plasma (Homo sapiens, UniProt P21731).
T1 construct: aggregating human, citrated, platelet-rich plasma; endogenous in cells; host or cells: human platelets in citrated platelet-rich plasma
T1 sequence (P21731 1-343): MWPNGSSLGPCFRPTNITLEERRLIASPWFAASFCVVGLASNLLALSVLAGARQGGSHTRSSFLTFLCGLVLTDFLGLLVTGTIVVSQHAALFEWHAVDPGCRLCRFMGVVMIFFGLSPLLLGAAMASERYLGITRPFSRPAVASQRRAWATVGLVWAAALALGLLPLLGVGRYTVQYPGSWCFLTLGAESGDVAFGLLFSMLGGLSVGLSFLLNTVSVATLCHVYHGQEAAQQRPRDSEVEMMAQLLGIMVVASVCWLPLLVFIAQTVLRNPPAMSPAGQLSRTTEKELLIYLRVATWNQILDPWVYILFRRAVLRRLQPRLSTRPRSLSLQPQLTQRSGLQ
The assay is described as follows: Test (b): U46619-induced aggregation of human citrated platelet-rich plasma (Born). Format: cell-based. Conditions: agonist U46619, averaged over several concentrations.
From the text: as §1
(b) a blood platelet aggregation test based on that described by Born (Nature, 1962, 194, 927-929) and involving:
(i) aggregating human, citrated, platelet-rich plasma by addition of the TXA2 mimetic agent U46619 so that a dose-response curve is generated;
(ii) generating a dose-response curve for U46619 stimulated platelet aggregation in the presence of increasing amounts of test compound (generally in the range 10^-5 M to 10^-10 M); and
(iii) calculating a KB value indicating potency of TXA2 antagonism for the test compound, averaged over several concentrations, from the calculated 50% response value for U46619 aggregation in the presence and absence of test compound; and […]

For assay [3], the system named is U46619 induced hypertension. The assay is described as follows: Test (d): U46619-induced hypertension in anaesthetised rats. Format: in vivo, rat (Alderley Park strain). Conditions: 1 hour after an oral dose of 5 mg/kg. As to the method: (d) Male rats (Alderley Park strain) are anaesthetised with sodium pentobarbital and blood pressure is monitored at the carotid artery. The TXA2 mimetic agent U46619 is administered intravenously at 5 μg/kg via the jugular vein to produce a 20-30 mm Hg ([…]) increase in systolic pressure. The procedure is repeated twice to establish reproducibility of the effect. A test compound is then administered either intravenously (via the jugular vein) or orally (via a cannula) directly into the stomach and the animal is challenged with U46619, five minutes after dosing with test compound and then successively every ten minutes until the hypertensive effect of U46619 is no longer blocked.

The results in this text go back to US5126368A, “Octenoic acid derivatives useful as thromboxane A2 inhibitors” (Imperial Chemical Industries plc, priority 1985, dated 1992).

As to `O=C(O)CCCC/C=C\C[C@@H]1CO[C@H](C(F)(F)F)O[C@@H]1c1ccccc1O` (relative stereo) [compound of formula I, 6(Z)-8-([2,4,5-cis]-4-o-hydroxyphenyl-2-trifluoromethyl-1,3-dioxan-5-yl)octenoic acid], in the assay with rabbit aortal strip, the pA2 (usually a measure of antagonist potency on a negative log scale) was 7.75±0.05. Further, in assay [1], the dose ratio is given as above 60. Also, in assay [2], the Kb is 3.35 µM. Besides, the “inhibition of U46619 induced hypertension” value in assay [3] is above 70%.

On to `O=C(O)CCC/C=C\C[C@@H]1CO[C@H](C(F)(F)F)O[C@@H]1c1ccccc1` (relative stereo) [5(Z)-7-([2,4,5-cis]-4-phenyl-2-trifluoromethyl-1,3-dioxan-5-yl)heptenoic acid, reference compound], for which the pA2 in the assay with rabbit aortal strip came out at 6.52±0.02.
